Laboratory results from patent publication US20130310379A1, “MODULATORS OF METHYL MODIFYING ENZYMES, COMPOSITIONS AND USES THEREOF” (CONSTELLATION PHARMACEUTICALS, priority 2010, published 2013).

Target: EZH2 (Homo sapiens, UniProt Q15910)
Experiment: EZH2 assay: rPRC2 with biotinylated oligonucleosome substrates and 3H SAM, FlashPlate scintillation counting, IC50
Type: biochemical
Conditions: rPRC2, biotinylated oligonucleosome substrates, 3H SAM; read-out: EZH2 IC50
How it was run: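 rPRC2 (2 nM EZH2) pre-incubated 20 min with compound (80 to 0.16 uM, ten 2-fold steps), then 60 min reaction with 0.2 uM 3H SAM, 0.2 uM biotinylated oligonucleosomes, 3.6 uM H3K27me3 peptide in Tris pH 8.5. SAH/EDTA quench; 4-parameter IC50 fit.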

Chain of EZH2 (Q15910 whole entry): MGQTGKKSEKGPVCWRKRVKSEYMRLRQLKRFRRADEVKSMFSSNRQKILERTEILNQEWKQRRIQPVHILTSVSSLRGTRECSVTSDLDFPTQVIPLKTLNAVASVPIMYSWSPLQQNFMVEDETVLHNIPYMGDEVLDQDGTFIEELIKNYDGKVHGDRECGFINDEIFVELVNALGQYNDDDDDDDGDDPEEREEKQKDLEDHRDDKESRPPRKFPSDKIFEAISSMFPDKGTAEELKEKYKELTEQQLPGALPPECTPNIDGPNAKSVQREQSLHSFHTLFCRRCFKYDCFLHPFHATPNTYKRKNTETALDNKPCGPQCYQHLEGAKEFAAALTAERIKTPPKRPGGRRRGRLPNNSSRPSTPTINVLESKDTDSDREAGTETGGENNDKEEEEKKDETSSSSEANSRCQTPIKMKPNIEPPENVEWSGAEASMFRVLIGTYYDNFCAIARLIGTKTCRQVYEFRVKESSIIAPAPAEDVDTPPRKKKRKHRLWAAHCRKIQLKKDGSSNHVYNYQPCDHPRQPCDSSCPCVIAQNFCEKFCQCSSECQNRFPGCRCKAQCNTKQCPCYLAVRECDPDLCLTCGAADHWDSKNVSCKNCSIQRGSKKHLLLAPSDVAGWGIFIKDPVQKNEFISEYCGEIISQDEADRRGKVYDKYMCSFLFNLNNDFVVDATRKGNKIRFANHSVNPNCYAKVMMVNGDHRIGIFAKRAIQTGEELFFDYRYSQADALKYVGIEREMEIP
Chain of EZH2 (O75530 whole entry partner): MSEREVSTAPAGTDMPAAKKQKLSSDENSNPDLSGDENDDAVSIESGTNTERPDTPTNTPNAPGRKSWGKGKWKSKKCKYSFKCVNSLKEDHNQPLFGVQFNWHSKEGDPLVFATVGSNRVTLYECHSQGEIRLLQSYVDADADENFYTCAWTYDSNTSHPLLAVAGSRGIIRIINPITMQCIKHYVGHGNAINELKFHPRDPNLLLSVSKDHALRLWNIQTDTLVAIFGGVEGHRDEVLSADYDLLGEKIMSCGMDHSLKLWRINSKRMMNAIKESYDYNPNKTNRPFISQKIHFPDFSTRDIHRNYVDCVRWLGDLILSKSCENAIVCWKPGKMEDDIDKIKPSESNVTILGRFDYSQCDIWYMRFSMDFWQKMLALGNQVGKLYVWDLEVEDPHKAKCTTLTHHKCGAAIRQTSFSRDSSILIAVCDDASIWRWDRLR
Chain of EZH2 (Q15022 whole entry partner): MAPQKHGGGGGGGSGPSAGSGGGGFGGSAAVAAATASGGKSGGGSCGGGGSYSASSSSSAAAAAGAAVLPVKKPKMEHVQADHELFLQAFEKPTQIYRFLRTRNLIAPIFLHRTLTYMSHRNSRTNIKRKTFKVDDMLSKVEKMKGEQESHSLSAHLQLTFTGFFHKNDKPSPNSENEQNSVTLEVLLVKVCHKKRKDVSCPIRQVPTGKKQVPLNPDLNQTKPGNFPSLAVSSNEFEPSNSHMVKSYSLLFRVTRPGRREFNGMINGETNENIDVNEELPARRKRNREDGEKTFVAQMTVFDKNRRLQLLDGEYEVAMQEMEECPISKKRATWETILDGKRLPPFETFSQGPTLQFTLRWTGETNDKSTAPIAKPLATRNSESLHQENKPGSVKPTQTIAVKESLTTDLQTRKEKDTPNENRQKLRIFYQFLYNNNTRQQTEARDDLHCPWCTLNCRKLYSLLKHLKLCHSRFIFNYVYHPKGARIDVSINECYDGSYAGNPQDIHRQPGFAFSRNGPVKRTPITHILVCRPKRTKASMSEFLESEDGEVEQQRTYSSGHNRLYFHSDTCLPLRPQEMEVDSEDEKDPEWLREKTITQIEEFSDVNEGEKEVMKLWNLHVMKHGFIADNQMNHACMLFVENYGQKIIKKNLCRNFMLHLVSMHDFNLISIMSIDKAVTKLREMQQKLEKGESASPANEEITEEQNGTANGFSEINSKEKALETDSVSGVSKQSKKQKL

`CC1(C)CC(NC(=O)c2cccc(Oc3ccccc3)c2)CC(C)(C)N1` [Compound I-94] and `Cc1cc(Oc2ccccc2)ccc1C(=O)NC1CC(C)(C)NC(C)(C)C1` [Compound I-124, 2-methyl-4-phenoxy-N-(2,2,6,6-tetramethylpiperidin-4-yl)-benzamide] cannot be ordered by IC50: over 80 µM for the first, over 80 µM for the second.

`CNC(=O)Cc1cccc(Oc2ccc(C(=O)NC3CC(C)(C)NC(C)(C)C3)cc2Cl)c1C#N` [Compound I-458] and `CC(Cc1cccc(Oc2ccc(C(=O)NC3CC(C)(C)NC(C)(C)C3)cc2Cl)c1C#N)C(N)=O` (centres unmarked) [Compound I-559] cannot be ordered by IC50: under 5 µM for the first, under 5 µM for the second.

`CC(c1ccccc1C#N)N1CCN(C(=O)NC2CC(C)(C)NC(C)(C)C2)CC1` (centres unmarked) [Compound I-454] and `CC(c1ccccc1C#N)N1CCN(C(=O)NC2CC(C)(C)NC(C)(C)C2)CC1=O` (centres unmarked) [Compound I-484] cannot be ordered by IC50: over 80 µM for the first, over 80 µM for the second.

Compared with `CC1(C)CC(NC(=O)c2ccc(Oc3ccccc3C#N)c(Cl)c2)C(F)C(C)(C)N1` (centres unmarked) [Compound I-434], `CC(=O)N1C(C)(C)CC(NC(=O)c2ccc(Oc3ccccc3C#N)c(Cl)c2)CC1(C)C` [Compound I-290] is higher in IC50: 20 to 80 µM for the first, over 80 µM for the second. The first is the more potent here.

Compared with `CC1(C)CC(NC(=O)c2ccc(Oc3cccc4c3C(=O)NCC4)c(Cl)c2)CC(C)(C)N1` [Compound I-525], `CC1(C)CC(NC(=O)c2ccc(Oc3cccc(C4CCCN4)c3C#N)c(Cl)c2)CC(C)(C)N1` (centres unmarked) [Compound I-562] is lower in IC50: 5 to 20 µM for the first, under 5 µM for the second. The second is the more potent here.

First: Cc1noc(C)c1-c1cc(C(=O)NC2CC(C)(C)NC(C)(C)C2)ccc1Oc1ccccc1C#N [Compound I-214]
Second: CCc1cc(C(=O)NC2CC(C)(C)NC(C)(C)C2)ccc1Oc1ccccc1C#N [Compound I-265]
The IC50 of the first is higher: 20 to 80 µM for the first, under 5 µM for the second.

First: CC1(C)CC(NC(=O)c2ccc(-c3ccc4ccncc4c3)c(Cl)c2)CC(C)(C)N1 [Compound I-377]
Second: Cc1ccncc1-c1cccc(Oc2ccc(C(=O)NC3CC(C)(C)NC(C)(C)C3)cc2Cl)c1C#N [Compound I-365]
The IC50 of the first is higher: 5 to 20 µM for the first, under 5 µM for the second. The second is the more potent here.

First: CC1(C)CC(NC(=O)c2ccc(Nc3ccccc3)nc2)CC(C)(C)N1 [Compound I-104, 6-(Phenylamino)-N-(2,2,6,6-tetramethylpiperidin-4-yl)nicotinamide]
Second: CC1(C)CC(NC(=O)c2ccc(Sc3ccccc3)cc2)CC(C)(C)N1 [Compound I-50]
The IC50 of the first is higher: over 80 µM for the first, 20 to 80 µM for the second.

Compared with `CC1(C)CC(NC(=O)c2ccc(N3CCc4cccc(O)c4C3=O)c(Cl)c2)CC(C)(C)N1` [Compound I-498], `CC1(C)CC(NC(=O)c2ccc(N3C(=O)COc4ccccc43)c(Cl)c2)CC(C)(C)N1` [Compound I-522] is higher in IC50: 5 to 20 µM for the first, 20 to 80 µM for the second.

`CC1(C)CC(NC(=O)c2ccc(COc3cccc(-c4cncnc4)c3)cc2)CC(C)(C)N1` [Compound I-32] and `COc1cncc(-c2cccc(OCc3ccc(C(=O)NC4CC(C)(C)NC(C)(C)C4)cc3)c2)c1` [Compound I-37] fall in the same range of IC50: 20 to 80 µM for the first, 20 to 80 µM for the second.

`CC1(C)CC(NC(=O)c2ccc(OC3CCNC3)c(Cl)c2)CC(C)(C)N1` (centres unmarked) [Compound I-411] and `CC1(C)CC(NC(=O)c2ccc(OC3CNC3)c(Cl)c2)CC(C)(C)N1` [Compound I-392] cannot be ordered by IC50: over 80 µM for the first, over 80 µM for the second.

`O=C(N[C@H]1CCN(Cc2ccccc2)C1)c1ccc(Oc2ccccc2)cc1` [Compound I-100] and `CN(Cc1ccccc1)C(=O)c1ccc(Oc2ccccc2)cc1` [Compound I-133] cannot be ordered by IC50: over 80 µM for the first, over 80 µM for the second.

First: CC1(C)CC(NC(=O)c2ccc(Oc3ccccc3CC#N)cc2)CC(C)(C)N1 [Compound I-305]
Second: CNCc1ccccc1Oc1ccc(C(=O)NC2CC(C)(C)NC(C)(C)C2)cc1 [Compound I-274]
The IC50 of the first is lower: 20 to 80 µM for the first, over 80 µM for the second. The first is the more potent here.

`CC1(C)CC(NC(=O)c2ccc(Oc3cccc(-c4cnc(N)nc4)c3)cc2)CC(C)(C)N1` [Compound I-251] and `Cc1cccc(Oc2ccc(C(=O)NC3CC(C)(C)NC(C)(C)C3)cc2)c1` [Compound I-60] fall in the same range of IC50: 20 to 80 µM for the first, 20 to 80 µM for the second.

Compared with `CC1(C)CC(NC(=O)c2ccc(-n3ncc4c(Br)cccc43)c(Cl)c2)CC(C)(C)N1` [Compound I-490], `CC1(C)CC(NC(=O)c2ccc(-n3cnc4ccccc43)c(Cl)c2)CC(C)(C)N1` [Compound I-303] is higher in IC50: 5 to 20 µM for the first, over 80 µM for the second.

`CC1(C)CC(C(=O)Nc2ccc(Oc3ccccc3)cc2)CC(C)(C)N1` [Compound I-192] and `CC1(C)CC(NC(=O)c2ccc(Oc3ccccc3O)cc2)CC(C)(C)N1` [Compound I-123] cannot be ordered by IC50: over 80 µM for the first, over 80 µM for the second.

`CC1(C)CC(NC(=O)c2ccc(Oc3cccc(-c4cncs4)c3C#N)c(Cl)c2)CC(C)(C)N1` [Compound I-371] and `CC1(C)CC(NC(=O)c2ccc(Oc3cccc(-c4ccc[nH]4)c3C#N)c(Cl)c2)CC(C)(C)N1` [Compound I-337] cannot be ordered by IC50: under 5 µM for the first, under 5 µM for the second.

First: N#Cc1c(Oc2ccc(C(=O)NC3CCN(CCN)CC3)cc2Cl)cccc1-c1ccnnc1 [Compound I-486]
Second: CC1(C)CC(CC(=O)O)(NC(=O)c2ccc(Oc3cccc(-c4ccnnc4)c3C#N)c(Cl)c2)CC(C)(C)N1 [Compound I-482]
The IC50 of the first is lower: 5 to 20 µM for the first, 20 to 80 µM for the second.

`CC1(C)CC(NC(=O)c2ccc(Oc3ncccc3F)cc2)CC(C)(C)N1` [Compound I-110] and `CC1(C)CC(NC(=O)c2ccc(Oc3ccc(Cl)cc3)cc2)CC(C)(C)N1` [Compound I-91] cannot be ordered by IC50: over 80 µM for the first, over 80 µM for the second.

First: COc1cc(C(=O)NC2CC(C)(C)NC(C)(C)C2)ccc1COc1cccc(Br)c1 [Compound I-31]
Second: COc1cccc(Oc2ccc(C(=O)NC3CC(C)(C)NC(C)(C)C3)cc2)c1 [Compound I-71]
The IC50 of the first is lower: 20 to 80 µM for the first, over 80 µM for the second.

First: CC1(C)CC(NC(=O)c2ccc(Oc3cccc(OCc4ccccc4)c3)cc2)CC(C)(C)N1 [Compound I-168]
Second: CNCc1cccc(Oc2ccc(C(=O)NC3CC(C)(C)NC(C)(C)C3)cc2)c1 [Compound I-236]
The IC50 of the first is higher: 20 to 80 µM for the first, 5 to 20 µM for the second.

First: CC1(C)CC(NC(=O)c2ccc(Oc3ccccc3C#N)cc2)CC(C)(C)N1 [Compound I-6]
Second: COc1ccccc1Oc1ccc(C(=O)NC2CC(C)(C)NC(C)(C)C2)cc1 [Compound I-57]
The IC50 of the first is lower: under 5 µM for the first, 20 to 80 µM for the second.

First: CC1(C)CC(NC(=O)c2ccc(COc3cccc(-c4cncc(C#N)c4)c3)cc2)CC(C)(C)N1 [Compound I-33]
Second: Cc1ccc(-c2cccc(OCc3ccc(C(=O)NC4CC(C)(C)NC(C)(C)C4)cc3)c2)s1 [Compound I-18]
The IC50 of the first is higher: 20 to 80 µM for the first, 5 to 20 µM for the second.

`CC1(C)CC(NC(=O)c2ccc(Sc3ccccc3)c(Cl)c2)CC(C)(C)N1` [Compound I-300] and `Cc1ccccc1Sc1ccc(C(=O)NC2CC(C)(C)NC(C)(C)C2)cc1Cl` [Compound I-302] fall in the same range of IC50: 20 to 80 µM for the first, 20 to 80 µM for the second.

Compared with `CC1(C)CC(NC(=O)c2ccc(OC3CCCCC3)cc2)CC(C)(C)N1` [Compound I-147], `CC1(C)CC(NC(=O)c2ccc(Oc3cccc(CN4CCCC4)c3)cc2)CC(C)(C)N1` [Compound I-235] is lower in IC50: 20 to 80 µM for the first, 5 to 20 µM for the second.

`CC1(C)CC(NC(=O)c2ccc(Oc3c(Cl)cccc3C#N)cc2)CC(C)(C)N1` [Compound I-244] and `CC1(C)CC(NC(=O)c2ccc(Oc3cccc4c(N)nccc34)cc2)CC(C)(C)N1` [Compound I-316] fall in the same range of IC50: 20 to 80 µM for the first, 20 to 80 µM for the second.

`Cn1cncc1COc1ccc(C(=O)NC2CC(C)(C)NC(C)(C)C2)cc1Cl` [Compound I-390] and `CC1(C)CC(NC(=O)c2ccc(OC[C@@H]3CCCN3)c(Cl)c2)CC(C)(C)N1` [Compound I-410] cannot be ordered by IC50: over 80 µM for the first, over 80 µM for the second.

`Cc1cc(C(=O)NC2CC(C)(C)NC(C)(C)C2)ccc1Oc1cccc(C2CC2)c1C#N` [Compound I-263] and `CC1(C)CC(NC(=O)c2ccc(Oc3cccc(C4CCOCC4)c3C#N)c(Cl)c2)CC(C)(C)N1` [Compound I-531] cannot be ordered by IC50: under 5 µM for the first, under 5 µM for the second.

Compared with `CC1(C)CC(NC(=O)c2ccc(O[C@H]3CCNC3=O)c(Cl)c2)CC(C)(C)N1` [Compound I-457], `COC(C)c1cccc(Oc2ccc(C(=O)NC3CC(C)(C)NC(C)(C)C3)cc2Cl)c1C#N` (centres unmarked) [Compound I-420] is lower in IC50: over 80 µM for the first, under 5 µM for the second.

`CCN(C(=O)c1ccc(Oc2ccccc2C#N)c(Cl)c1)C1CC(C)(C)NC(C)(C)C1` [Compound I-341] and `CC1(C)CC(NC(C(=O)O)c2ccc(Oc3ccccc3C#N)c(Cl)c2)CC(C)(C)N1` (centres unmarked) [Compound I-483] cannot be ordered by IC50: over 80 µM for the first, over 80 µM for the second.

`CC1(C)CC(NC(=O)c2ccc(COc3ccncc3)cc2)CC(C)(C)N1` [Compound I-112] and `COC(=O)c1ccc(COc2ccc(C(=O)NC3CC(C)(C)NC(C)(C)C3)cc2)cc1` [Compound I-117] cannot be ordered by IC50: over 80 µM for the first, over 80 µM for the second.

`CC1(C)CC(NC(=O)c2ccc(Oc3ccccc3C#N)c(Cc3ccccc3)c2)CC(C)(C)N1` [Compound I-201] and `CC1(C)CC(NC(=O)c2ccc(Oc3ccccc3C#N)c(-c3ccsc3)c2)CC(C)(C)N1` [Compound I-212] cannot be ordered by IC50: under 5 µM for the first, under 5 µM for the second.

`CN1C2CCC1CC(NC(=O)c1ccc(Oc3ccccc3)cc1)C2` (centres unmarked) [Compound I-114] and `COC(=O)C1CC(NC(=O)c2ccc(Oc3ccccc3C#N)c(Cl)c2)CCN1` (centres unmarked) [Compound I-389] cannot be ordered by IC50: over 80 µM for the first, over 80 µM for the second.

First: Cc1ccc(OCc2ccc(C(=O)NC3CC(C)(C)NC(C)(C)C3)cc2)c(C)c1 [Compound I-42]
Second: Cc1ccc(-c2ccccc2Oc2ccc(C(=O)NC3CC(C)(C)NC(C)(C)C3)cc2Cl)cn1 [Compound I-295]
The IC50 of the first is higher: 20 to 80 µM for the first, under 5 µM for the second. The second is the more potent here.

`Cc1cc(C(=O)NC2CC(C)(C)NC(C)(C)C2)ccc1Oc1cccc(-c2cccnc2)c1C#N` [Compound I-261] and `CC1(C)CC(NC(=O)c2ccc(Oc3cccc(-c4ncccn4)c3C#N)c(Cl)c2)CC(C)(C)N1` [Compound I-445] cannot be ordered by IC50: under 5 µM for the first, under 5 µM for the second.

`CC1(C)CC(NC(=O)c2ccc(Oc3ccccc3-c3nccs3)c(Cl)c2)CC(C)(C)N1` [Compound I-278] and `CC1(C)CC(NC(=O)c2ccc(Oc3ccccc3-c3cccs3)c(Cl)c2)CC(C)(C)N1` [Compound I-277] cannot be ordered by IC50: under 5 µM for the first, under 5 µM for the second.

Compared with `CC1(C)CC(NC(=O)c2ccc(Oc3ccccc3C#N)c(Cl)c2)CC(C)(C)N1CCCO` [Compound I-489, 3-chloro-4-(2-cyanophenoxy)-N-(1-(3-hydroxypropyl)-2,2,6,6-tetramethylpiperidin-4-yl)benzamide], `CC1(C)CC(NC(=O)c2ccc(Oc3ccccc3-c3nn[nH]n3)c(Br)c2)CC(C)(C)N1` [Compound I-282] is higher in IC50: under 5 µM for the first, over 80 µM for the second.
